Data on 5 compounds can be found in patent publication US4322411A, “Anti-inflammatory nucleosides” (Burroughs Wellcome Co., priority 1980, dated 1982).

Like-named read-outs stand apart in the source and are kept apart here.

For data set [1], the system named is carrageenan pleurisy (3 hour pleural exudate volume). As to the kind of experiment: Duration of action of anti-inflammatory activity (Carrageenan Pleurisy Assay). It is filed as in vivo, rat. The settings on record: for duration of action (time of drug administration prior to carrageenan injection at which inhibition of 3 hour pleural exudate volume declined to 40%): single oral pretreating dose. On the procedure: Following the procedure previously described by Vinegar et al. in Proc. Soc. Exp. Biol. Med., 143, 711 (1973) and recently modified (Vinegar et al., Eur. J. Rheum. Inflam. 1, 204 (1978)) the acute anti-inflammatory activity of 3-deazaadenosine was compared with that of known anti-inflammatory drugs. The average 3 hr exudate volume for each drug-treated group was determined and the % inhibition relative to solvent-fed control animals calculated, the ED50 (mg/kg of body wt) being the dose required to reduce the 3 hr exudate volume by 50%. There were 5 animals in each drug-treated group and the control group.
Duration of action of anti-inflammatory activity of 3-deazaadenosine
By means of the Carrageenan Pleurisy Assay of Example 1 the duration of action of the test compounds after a single oral pretreating dose was determined. For 3-deazaadenosine the effect lasted for 14.9 hours at 6 mg/kg (p.o.) whilst for aspirin (150 mg/kg p.o.) and acetaminophen (220 mg/kg p.o.) the effect lasted […] and 2 hours, respectively. This value represents the time (hours) of drug administration prior to the injection of carrageenan in which the inhibition of the 3 hour pleural exudate volume declined to 40%.

Data set [2] deals with carrageenan pleurisy (3 hr exudate volume). As to the kind of experiment: Local anti-inflammatory activity: Carrageenan Pleurisy Assay (CPA), intrapleural. It is filed as in vivo, rat. The settings on record: 3 hr Vol. From the text:
Local Anti-Inflammatory Activity of 3-Deazaadenosine: Carrageenan Pleurisy Assay (CPA)
Following the procedure described by Vinegar et al., Eur. J. Rheum. Inflam. […] There were 5 animals in each drug-treated group and the control group.

In data set [3] the test system is developing adjuvant arthritis. In words: Developing adjuvant arthritis. It is filed as in vivo, rat. The settings on record: for ED50: Rattus norvegicus, po, 384 h, read-out: Developing Arthritis ED50 on Day 16. On the procedure: (§1) There were 5 animals in each drug-treated group. For developing adjuvant arthritis the drugs were administered in the diet from day 1 to day 16. For established adjuvant arthritis the drugs were administered from day 21 to day 42.

For data set [4], the system named is established adjuvant arthritis. In words: Established adjuvant arthritis. The class given is in vivo, rat. The settings on record: for ED25: Rattus norvegicus, po, 1008 h, read-out: Established Arthritis ED25 on Day 42. On the procedure:
as §1

A short description of data set [5]: Antipyretic activity. The settings on record: in vivo.
Data set [6] can be described thus: Analgesic activity. The settings on record: in vivo.
In data set [7] the test system is cyclooxygenase pathway. As to the kind of experiment: Inhibition of prostaglandin metabolism in vitro, cyclooxygenase pathway. It is filed as biochemical.
Data set [8] relates to lipoxygenase pathway. As to the kind of experiment: Inhibition of prostaglandin metabolism in vitro, lipoxygenase pathway. It is filed as biochemical.
Data set [9] concerns liver. In words: Liver damage in animal models. It is filed as in vivo. The settings on record: in the animal models used.
Data set [10] can be described thus: Side effects (gastric damage, platelet aggregation, steroid side effects).
Data set [11] can be described thus: Half life. The settings on record: in vivo.
A short description of data set [12]: Therapeutic index. The settings on record: in vivo.
The nature of data set [13]: Water solubility. It is filed as physicochemical.
Data set [14] deals with inflammation. In words: Anti-inflammatory effectiveness by route. The class given is in vivo. The settings on record: result in words.
The test system of data set [15] is immune response. The settings on record: in vivo; cited from earlier work.
The conditions of data set [16]: in vivo; cited from earlier work.

With `Nc1nccc2c1ncn2[C@@H]1O[C@H](CO)[C@@H](O)[C@H]1O` [3-Deazaadenosine, 4-amino-1-β-D-ribofuranosyl-1H-imidazo[4,5-c]-pyridine], the “duration of action (time of drug administration prior to carrageenan injection at which inhibition of 3 hour pleural exudate volume declined to 40%)” value in data set [1] (6 mg/kg p.o.) came to 14.9 h. In addition, the duration of action result in data set [1] (general statement, no dose given) is recorded as “about 15 hours”. Moreover, the values for the ED50 in data set [2] and in data set [3] (in diet from day 1 to day 16) were 0.05 mg/rat and 8 ± 2.8 mg/kg, respectively. Further, the “inhibition of developing adjuvant arthritis” value in [3] (result in words) was “inhibit both developing and established adjuvant arthritis”. Further, the ED25 in [4] (from day 21 to day 42, parentheses indicate an approximate value) was about 18 mg/kg/day. Also, the “inhibition of established adjuvant arthritis” value in [4] (result in words) was “inhibit both developing and established adjuvant arthritis”. Further, the antipyretic activity entry in [5] is reported as “not antipyretic”. In addition, the “analgesic activity per se” value in data set [6] is listed as “has not analgesic activity per se”. For the same compound, the “inhibition of prostaglandin metabolism via cyclooxygenase pathway” value in data set [7] is reported as “does not inhibit”. Further, the “inhibition of prostaglandin metabolism via lipoxygenase pathway” value in data set [8] is “does not inhibit”. In addition, in data set [9], the liver damage entry is on record as “does not cause liver damage”. In [10], the “side effects of the anti-inflammatory steroids” value is listed as “free of the side effects of the anti-inflammatory steroids”. Besides, in [10] (inferred from lack of inhibition of prostaglandin metabolism), the “side effects associated with prostaglandin inhibitors (gastric damage, inhibition of platelet aggregation)” value is listed as “free of the side effects”. Moreover, the half life result in data set [11] was “short”. In addition, in data set [12], the therapeutic index result is listed as “high”. In data set [13], the water solubility result is listed as “high”. In addition, the “anti-inflammatory effectiveness by route” value in data set [14] was “effective orally, systemically and locally”. In addition, the “dose required for immunesuppression” value in data set [15] is “more than 30 mg/kg”. In data set [16], the “dose required for antiviral activity” value is reported as 100-200 mg/kg per day.
Consider `CC(=O)Oc1ccccc1C(=O)O` [Aspirin, reference compound], for which, in [1] (150 mg/kg p.o.), the “duration of action (time of drug administration prior to carrageenan injection at which inhibition of 3 hour pleural exudate volume declined to 40%)” value is 35 h. The ED50 turned out to be 0.04 mg/rat in data set [2] and 150 ± 53.1 mg/kg in [3]. The ED25 in [4] was under 150 mg/kg/day.
For the compound `C[C@]12CCC(=O)C=C1CC[C@@H]1[C@@H]2[C@@H](O)C[C@@]2(C)[C@H]1CC[C@]2(O)C(=O)CO` [Hydrocortisone], in data set [2], the ED50 is listed as under 0.1 mg/rat.
`C[C@]12C=CC(=O)C=C1CC[C@@H]1[C@@H]2[C@@H](O)C[C@@]2(C)[C@H]1CC[C@]2(O)C(=O)CO` [Prednisolone, reference compound]: the ED50 in [3] was found to be 1 mg/kg. Besides, the ED25 in data set [4] was 0.2 mg/kg/day.
With `CC(=O)Nc1ccc(O)cc1` [acetaminophen, reference compound], in data set [1] (220 mg/kg p.o.), the “duration of action (time of drug administration prior to carrageenan injection at which inhibition of 3 hour pleural exudate volume declined to 40%)” value worked out at 2 h. In addition, in data set [9], the liver damage result was “cause liver damage”.
